Counter-ions that a name gives are not always drawn.
The compounds below were run against cloned human NR1/NR2B ion channels (Homo sapiens (Human), UniProt Q05586+Q13224) (assay: HNR2BC: effects of test articles on cloned human NR1/NR2B ion channels expressed in mammalian cells (FLIPR calcium flux)). Conditions: cloned human NR1/NR2B, Table 5.
Assay type: cell-based
Method in brief: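 In a stable Tet-On-induced cell line expressing human GluN1/GluN2B, Calcium 5-loaded cells were preincubated 5 min with compound, then stimulated 5 min with glutamate at ~EC80 plus 10 μM glycine, in pH 7.4 HEPES buffer. FLIPR calcium fluorescence was normalized to control wells.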

Chain of cloned human NR1/NR2B ion channels (Q13224 27-1484, other chains not shown): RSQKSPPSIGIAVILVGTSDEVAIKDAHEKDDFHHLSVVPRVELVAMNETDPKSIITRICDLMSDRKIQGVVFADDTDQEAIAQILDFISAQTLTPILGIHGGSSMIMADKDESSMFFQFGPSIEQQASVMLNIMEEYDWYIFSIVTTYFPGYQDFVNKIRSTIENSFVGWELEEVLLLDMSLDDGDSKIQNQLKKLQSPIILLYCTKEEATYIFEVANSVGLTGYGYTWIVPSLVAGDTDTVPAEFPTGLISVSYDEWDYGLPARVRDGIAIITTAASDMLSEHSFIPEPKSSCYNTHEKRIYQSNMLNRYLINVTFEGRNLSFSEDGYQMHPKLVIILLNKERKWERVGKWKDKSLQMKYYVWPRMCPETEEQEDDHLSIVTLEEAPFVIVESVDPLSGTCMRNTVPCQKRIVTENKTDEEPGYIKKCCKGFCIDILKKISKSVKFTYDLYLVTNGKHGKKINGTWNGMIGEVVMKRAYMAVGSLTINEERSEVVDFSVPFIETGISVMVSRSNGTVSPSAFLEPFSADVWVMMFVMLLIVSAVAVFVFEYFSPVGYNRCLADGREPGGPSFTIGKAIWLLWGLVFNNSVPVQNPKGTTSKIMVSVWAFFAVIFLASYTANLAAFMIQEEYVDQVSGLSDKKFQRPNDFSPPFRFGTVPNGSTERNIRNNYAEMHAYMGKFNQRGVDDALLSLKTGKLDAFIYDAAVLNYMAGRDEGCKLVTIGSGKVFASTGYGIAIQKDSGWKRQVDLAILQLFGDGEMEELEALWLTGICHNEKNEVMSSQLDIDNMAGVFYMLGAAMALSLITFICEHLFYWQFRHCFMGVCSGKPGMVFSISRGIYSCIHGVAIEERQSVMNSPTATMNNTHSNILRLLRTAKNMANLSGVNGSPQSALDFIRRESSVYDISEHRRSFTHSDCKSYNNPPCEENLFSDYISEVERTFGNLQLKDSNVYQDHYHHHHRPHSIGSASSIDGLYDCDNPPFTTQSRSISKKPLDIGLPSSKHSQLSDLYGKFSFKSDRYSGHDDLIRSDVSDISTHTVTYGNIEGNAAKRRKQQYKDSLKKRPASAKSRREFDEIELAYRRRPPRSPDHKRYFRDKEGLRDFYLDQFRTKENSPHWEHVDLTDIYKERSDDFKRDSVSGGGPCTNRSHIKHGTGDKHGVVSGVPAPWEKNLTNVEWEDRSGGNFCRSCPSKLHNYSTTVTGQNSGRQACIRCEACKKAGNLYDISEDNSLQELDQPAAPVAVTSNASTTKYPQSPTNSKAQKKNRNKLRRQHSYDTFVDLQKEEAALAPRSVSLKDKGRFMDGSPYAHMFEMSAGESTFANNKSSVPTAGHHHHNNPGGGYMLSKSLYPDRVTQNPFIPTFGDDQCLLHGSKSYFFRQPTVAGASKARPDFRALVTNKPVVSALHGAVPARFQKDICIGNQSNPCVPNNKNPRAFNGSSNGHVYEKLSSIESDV

| SMILES | IC50 | pIC50 |
| --- | --- | --- |
| O=C(Cn1ccc2ncc(-c3cc(F)c(F)c(F)c3)cc21)N1CCOCC1 [Example 127, 1-Morpholino-2-[6-(3,4,5-trifluorophenyl)pyrrolo[3,2-b]pyridin-1-yl]ethanone] | 0.158 µM | – |
| O=C(Cn1ccc2ncc(-c3ccc(F)c(F)c3)cc21)N1CC(F)C1 [Example 128, 2-[6-(3,4-Difluorophenyl)pyrrolo[3,2-b]pyridin-1-yl]-1-(3-fluoroazetidin-1-yl)ethanone] | 0.0631 µM | – |
| O=C(Cn1ccc2ncc(-c3cc(F)cc(F)c3)cc21)N1CC(F)C1 [Example 129, 2-[6-(3,5-Difluorophenyl)pyrrolo[3,2-b]pyridin-1-yl]-1-(3-fluoroazetidin-1-yl)ethanone] | 0.0251 µM | – |
| Cc1csc(-c2cnc3ccn(Cc4cccnn4)c3c2)c1 [Example 130, 6-(4-Methyl-2-thienyl)-1-(pyridazin-3-ylmethyl)pyrrolo[3,2-b]pyridine] | – | 7.7 |
| Fc1ccc(-c2cnc3ccn(Cc4cccnn4)c3c2)cc1F [Example 131, 6-(3,4-Difluorophenyl)-1-(pyridazin-3-ylmethyl)pyrrolo[3,2-b]pyridine] | 0.126 µM | – |
| Cc1csc(-c2cnc3ccn(CC(=O)N4CCOCC4)c3c2)c1 [Example 132, 2-[6-(4-Methyl-2-thienyl)pyrrolo[3,2-b]pyridin-1-yl]-1-morpholino-ethanone] | 0.126 µM | – |
| O=C(Cn1ccc2ncc(-c3ccc(F)cc3F)cc21)N1CCC1 [Example 133, 1-(Azetidin-1-yl)-2-[6-(2,4-difluorophenyl)pyrrolo[3,2-b]pyridin-1-yl]ethanone] | 0.0794 µM | – |
| O=C(Cn1ccc2ncc(-c3cccc(F)c3F)cc21)N1CCC1 [Example 134, 1-(Azetidin-1-yl)-2-[6-(2,3-difluorophenyl)pyrrolo[3,2-b]pyridin-1-yl]ethanone] | 0.0316 µM | – |
| O=C(Cn1ccc2ncc(-c3cc(F)ccc3F)cc21)N1CCC1 [Example 135, 1-(Azetidin-1-yl)-2-[6-(2,5-difluorophenyl)pyrrolo[3,2-b]pyridin-1-yl]ethanone] | 0.0398 µM | – |
| O=C(Cn1cc(F)c2ncc(-c3ccc(F)c(F)c3)cc21)C1CC1 [Example 136, 1-Cyclopropyl-2-[6-(3,4-difluorophenyl)-3-fluoro-pyrrolo[3,2-b]pyridin-1-yl]ethanone] | 0.0631 µM | – |
| Cc1csc(-c2cnc3ccn(Cc4ccc(C(F)(F)F)o4)c3c2)c1 [Example 137, 6-(4-Methyl-2-thienyl)-1-[[5-(trifluoromethyl)-2-furyl]methyl]pyrrolo[3,2-b]pyridine] | – | 7.7 |
| CC(C)(C)C(=O)Cn1ccc2ncc(-c3ccc(F)c(F)c3)cc21 [Example 140, 1-[6-(3,4-Difluorophenyl)pyrrolo[3,2-b]pyridin-1-yl]-3,3-dimethyl-butan-2-one] | 0.0316 µM | – |
| Cc1cc(-c2cnc3ccn(CC(=O)C(C)(C)C)c3c2)ccc1F [Example 141, 1-[6-(4-Fluoro-3-methyl-phenyl)pyrrolo[3,2-b]pyridin-1-yl]-3,3-dimethyl-butan-2-one] | 0.398 µM | – |
| CC(C)(C)C(=O)Cn1ccc2ncc(-c3cc(F)cc(F)c3)cc21 [Example 142, 1-[6-(3,5-Difluorophenyl)pyrrolo[3,2-b]pyridin-1-yl]-3,3-dimethyl-butan-2-one] | 0.501 µM | – |
| Cc1csc(-c2cnc3ccn(CC(=O)C(C)(C)C)c3c2)c1 [Example 143, 3,3-Dimethyl-1-[6-(4-methyl-2-thienyl)pyrrolo[3,2-b]pyridin-1-yl]butan-2-one] | 0.794 µM | – |
| CC(C)(C)C(=O)Cn1ccc2ncc(-c3cccc(C(F)F)c3)cc21 [Example 144, 1-[6-[3-(Difluoromethyl)phenyl]pyrrolo[3,2-b]pyridin-1-yl]-3,3-dimethyl-butan-2-one] | 2 µM | – |
| CCc1cccc(-c2cnc3ccn(CC(=O)C(C)(C)C)c3c2)c1 [Example 145, 1-[6-(3-Ethylphenyl)pyrrolo[3,2-b]pyridin-1-yl]-3,3-dimethyl-butan-2-one] | 0.501 µM | – |
| Cc1cc(-c2cnc3c(Cl)cn(CC(=O)N(C)C)c3c2)ccc1F [Example 146, 2-[3-Chloro-6-(4-fluoro-3-methyl-phenyl)pyrrolo[3,2-b]pyridin-1-yl]-N,N-dimethyl-acetamide] | 1 µM | – |
| CN(C)C(=O)Cn1cc(Cl)c2ncc(-c3ccc(F)c(F)c3)cc21 [Example 147, 2-[3-Chloro-6-(3,4-difluorophenyl)pyrrolo[3,2-b]pyridin-1-yl]-N,N-dimethyl-acetamide] | 0.0501 µM | – |
| CN(C)C(=O)Cn1cc(Cl)c2ncc(-c3cc(F)cc(F)c3)cc21 [Example 148, 2-[3-Chloro-6-(3,5-difluorophenyl)pyrrolo[3,2-b]pyridin-1-yl]-N,N-dimethyl-acetamide] | 0.0501 µM | – |
| Cc1csc(-c2cnc3c(Cl)cn(CC(=O)N(C)C)c3c2)c1 [Example 149, 2-[3-Chloro-6-(4-methyl-2-thienyl)pyrrolo[3,2-b]pyridin-1-yl]-N,N-dimethyl-acetamide] | 0.0501 µM | – |

| SMILES | IC50 | pIC50 |
| --- | --- | --- |
| CN(C)C(=O)Cn1cc(Cl)c2ncc(-c3cccc(C(F)F)c3)cc21 [Example 150, 2-[3-Chloro-6-[3-(difluoromethyl)phenyl]pyrrolo[3,2-b]pyridin-1-yl]-N,N-dimethyl-acetamide] | – | 7.3 |
| CCc1cccc(-c2cnc3c(Cl)cn(CC(=O)N(C)C)c3c2)c1 [Example 151, 2-[3-Chloro-6-(3-ethylphenyl)pyrrolo[3,2-b]pyridin-1-yl]-N,N-dimethyl-acetamide] | 0.0794 µM | – |
| CN(C)C(=O)Cn1cc(Cl)c2ncc(-c3cc(F)c(F)c(F)c3)cc21 [Example 152, 2-[3-Chloro-6-(3,4,5-trifluorophenyl)pyrrolo[3,2-b]pyridin-1-yl]-N,N-dimethyl-acetamide] | 0.1 µM | – |
| Cc1csc(-c2cnc3ccn(CC(=O)NC4CC4)c3c2)c1 [Example 153, N-Cyclopropyl-2-[6-(4-methyl-2-thienyl)pyrrolo[3,2-b]pyridin-1-yl]acetamide trifluoroacetate salt] | 0.0631 µM | – |
| Cc1cccc(-c2cnc3ccn(CC(=O)NC4CC4)c3c2)c1C [Example 154, N-Cyclopropyl-2-[6-(2,3-dimethylphenyl)pyrrolo[3,2-b]pyridin-1-yl]acetamide trifluoroacetate salt] | 0.398 µM | – |
| Cc1cccc(-c2cnc3ccn(CC(=O)NC4CC4)c3c2)c1 [Example 155, N-Cyclopropyl-2-[6-(m-tolyl)pyrrolo[3,2-b]pyridin-1-yl]acetamide trifluoroacetate salt] | 0.251 µM | – |
| O=C(Cn1ccc2ncc(-c3ccc(Cl)c(Cl)c3)cc21)NC1CC1 [Example 156, N-Cyclopropyl-2-[6-(3,4-dichlorophenyl)pyrrolo[3,2-b]pyridin-1-yl]acetamide trifluoroacetate salt] | 0.2 µM | – |
| Cc1c(-c2cnc3ccn(CC(=O)NC4CC4)c3c2)cccc1C(F)(F)F [Example 157, N-Cyclopropyl-2-[6-[2-methyl-3-(trifluoromethyl)phenyl]pyrrolo[3,2-b]pyridin-1-yl]acetamide trifluoroacetate salt] | 0.251 µM | – |
| O=C(Cn1ccc2ncc(-c3ccccc3)cc21)NC1CC1 [Example 158, N-Cyclopropyl-2-(6-phenylpyrrolo[3,2-b]pyridin-1-yl)acetamide trifluoroacetate salt] | 0.631 µM | – |
| Cc1c(F)ccc(-c2cnc3ccn(CC(=O)NC4CC4)c3c2)c1C [Example 159, N-Cyclopropyl-2-[6-(4-fluoro-2,3-dimethyl-phenyl)pyrrolo[3,2-b]pyridin-1-yl]acetamide trifluoroacetate salt] | 0.251 µM | – |
| Cc1ccccc1-c1cnc2ccn(CC(=O)NC3CC3)c2c1 [Example 160, N-Cyclopropyl-2-[6-(o-tolyl)pyrrolo[3,2-b]pyridin-1-yl]acetamide] | 0.2 µM | – |
| Cc1cc(F)ccc1-c1cnc2ccn(CC(=O)NC3CC3)c2c1 [Example 161, N-Cyclopropyl-2-[6-(4-fluoro-2-methyl-phenyl)pyrrolo[3,2-b]pyridin-1-yl]acetamide trifluoroacetate salt] | 0.2 µM | – |
| Cc1ccccc1-c1cnc2ccn(CC(=O)N3CCC3)c2c1 [Example 162, 1-(Azetidin-1-yl)-2-[6-(o-tolyl)pyrrolo[3,2-b]pyridin-1-yl]ethanone trifluoroacetate salt] | 0.1 µM | – |
| Cc1cc(F)ccc1-c1cnc2ccn(CC(=O)N3CCC3)c2c1 [Example 163, 1-(Azetidin-1-yl)-2-[6-(4-fluoro-2-methyl-phenyl)pyrrolo[3,2-b]pyridin-1-yl]ethanone trifluoroacetate salt] | 0.0794 µM | – |
| Cc1c(F)ccc(-c2cnc3ccn(CC(=O)N4CCC4)c3c2)c1C [Example 164, 1-(Azetidin-1-yl)-2-[6-(4-fluoro-2,3-dimethyl-phenyl)pyrrolo[3,2-b]pyridin-1-yl]ethanone trifluoroacetate salt] | 0.0631 µM | – |
| Cc1cccc(-c2cnc3ccn(CC(=O)N4CCC4)c3c2)c1C [Example 165, 1-(Azetidin-1-yl)-2-[6-(2,3-dimethylphenyl)pyrrolo[3,2-b]pyridin-1-yl]ethanone trifluoroacetate salt] | 0.0631 µM | – |
| Cc1c(-c2cnc3ccn(CC(=O)N4CCC4)c3c2)cccc1C(F)(F)F [Example 167, 1-(Azetidin-1-yl)-2-[6-[2-methyl-3-(trifluoromethyl)phenyl]pyrrolo[3,2-b]pyridin-1-yl]ethanone trifluoroacetate salt] | 0.0398 µM | – |
| O=C(Cn1ccc2ncc(-c3ccc(F)cc3)cc21)NC1CC1 [Example 168, N-Cyclopropyl-2-[6-(4-fluorophenyl)pyrrolo[3,2-b]pyridin-1-yl]acetamide] | 0.251 µM | – |
| Cc1cc(-c2cnc3c(C)cn(CC(=O)N4CCC4)c3c2)ccc1F [Example 169, 1-(Azetidin-1-yl)-2-[6-(4-fluoro-3-methyl-phenyl)-3-methyl-pyrrolo[3,2-b]pyridin-1-yl]ethanone trifluoroacetate salt] | 0.2 µM | – |
| CCCCn1ccc2ncc(-c3ccc(F)c(C)c3)cc21 [Example 170, 1-Butyl-6-(4-fluoro-3-methyl-phenyl)pyrrolo[3,2-b]pyridine trifluoroacetate salt] | 0.316 µM | – |

Source: patent publication US10377753B2, “Substituted 4-azaindoles and their use as GluN2B receptor modulators” (Janssen Pharmaceutica NV, priority 2015, dated 2019)
